Experimental data reported in ChEMBL document CHEMBL1921711, “Transformation of quercitols into 4-methylenecyclohex-5-ene-1,2,3-triol derivatives, precursors for the chemical chaperones N-octyl-4-epi-β-valienamine (NOEV) and N-octyl-β-valienamine (NOV)” (Bioorg Med Chem Lett, 2011).
Activity calls are given as the source filed them. No cut-off for these calls is given here.

What was measured:
[1] = (§1) Inhibition of almonds beta-glucosidase by spectrometry; parameters: species or system Prunus dulcis
Alpha-galactosidase = Alpha-galactosidase (Coffea arabica, UniProt Q42656); assay: Inhibition of green coffee beans alpha-galactosidase by spectrometry
Sequence of Alpha-galactosidase (Q42656 whole entry): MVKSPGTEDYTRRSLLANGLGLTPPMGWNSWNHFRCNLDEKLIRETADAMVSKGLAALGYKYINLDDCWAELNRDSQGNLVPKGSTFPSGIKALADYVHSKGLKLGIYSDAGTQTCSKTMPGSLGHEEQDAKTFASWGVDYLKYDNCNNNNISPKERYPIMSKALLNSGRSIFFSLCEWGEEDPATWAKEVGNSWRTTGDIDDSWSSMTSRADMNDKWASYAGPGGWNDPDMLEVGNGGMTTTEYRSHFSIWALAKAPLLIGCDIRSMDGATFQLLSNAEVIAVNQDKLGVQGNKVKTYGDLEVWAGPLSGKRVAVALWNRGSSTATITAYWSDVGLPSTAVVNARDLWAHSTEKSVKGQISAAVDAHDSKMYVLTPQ

Beta-galactosidase [2] = target: T1, Beta-galactosidase (Bos taurus, UniProt Q58D55); assay: Inhibition of bovine liver beta-galactosidase by spectrometry
T1 sequence (Q58D55 whole entry): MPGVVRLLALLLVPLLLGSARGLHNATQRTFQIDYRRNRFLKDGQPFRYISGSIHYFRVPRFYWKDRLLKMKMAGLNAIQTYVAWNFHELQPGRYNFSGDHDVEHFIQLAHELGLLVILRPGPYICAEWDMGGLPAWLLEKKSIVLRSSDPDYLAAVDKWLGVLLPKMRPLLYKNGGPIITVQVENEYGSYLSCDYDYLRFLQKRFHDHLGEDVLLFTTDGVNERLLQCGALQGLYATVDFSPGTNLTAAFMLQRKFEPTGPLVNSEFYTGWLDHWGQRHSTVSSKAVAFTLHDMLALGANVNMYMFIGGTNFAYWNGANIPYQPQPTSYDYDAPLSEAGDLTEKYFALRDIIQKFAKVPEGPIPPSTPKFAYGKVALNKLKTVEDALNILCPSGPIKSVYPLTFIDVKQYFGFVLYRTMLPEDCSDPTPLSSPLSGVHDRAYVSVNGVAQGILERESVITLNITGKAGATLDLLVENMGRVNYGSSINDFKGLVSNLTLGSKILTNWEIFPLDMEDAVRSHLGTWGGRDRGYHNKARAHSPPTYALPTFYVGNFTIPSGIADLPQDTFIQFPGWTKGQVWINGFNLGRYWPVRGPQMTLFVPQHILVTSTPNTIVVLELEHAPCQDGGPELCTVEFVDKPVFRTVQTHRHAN

Canavalia ensiformis = assay: Inhibition of jack beans alpha-mannosidase by spectrometry
Prunus dulcis = assay: as §1
Beta-galactosidase [3] = target: T2, Beta-galactosidase (Aspergillus oryzae, UniProt Q2U7N3); assay: Inhibition of Aspergillus oryzae beta-galactosidase by spectrometry
T2 sequence (Q2U7N3 whole entry): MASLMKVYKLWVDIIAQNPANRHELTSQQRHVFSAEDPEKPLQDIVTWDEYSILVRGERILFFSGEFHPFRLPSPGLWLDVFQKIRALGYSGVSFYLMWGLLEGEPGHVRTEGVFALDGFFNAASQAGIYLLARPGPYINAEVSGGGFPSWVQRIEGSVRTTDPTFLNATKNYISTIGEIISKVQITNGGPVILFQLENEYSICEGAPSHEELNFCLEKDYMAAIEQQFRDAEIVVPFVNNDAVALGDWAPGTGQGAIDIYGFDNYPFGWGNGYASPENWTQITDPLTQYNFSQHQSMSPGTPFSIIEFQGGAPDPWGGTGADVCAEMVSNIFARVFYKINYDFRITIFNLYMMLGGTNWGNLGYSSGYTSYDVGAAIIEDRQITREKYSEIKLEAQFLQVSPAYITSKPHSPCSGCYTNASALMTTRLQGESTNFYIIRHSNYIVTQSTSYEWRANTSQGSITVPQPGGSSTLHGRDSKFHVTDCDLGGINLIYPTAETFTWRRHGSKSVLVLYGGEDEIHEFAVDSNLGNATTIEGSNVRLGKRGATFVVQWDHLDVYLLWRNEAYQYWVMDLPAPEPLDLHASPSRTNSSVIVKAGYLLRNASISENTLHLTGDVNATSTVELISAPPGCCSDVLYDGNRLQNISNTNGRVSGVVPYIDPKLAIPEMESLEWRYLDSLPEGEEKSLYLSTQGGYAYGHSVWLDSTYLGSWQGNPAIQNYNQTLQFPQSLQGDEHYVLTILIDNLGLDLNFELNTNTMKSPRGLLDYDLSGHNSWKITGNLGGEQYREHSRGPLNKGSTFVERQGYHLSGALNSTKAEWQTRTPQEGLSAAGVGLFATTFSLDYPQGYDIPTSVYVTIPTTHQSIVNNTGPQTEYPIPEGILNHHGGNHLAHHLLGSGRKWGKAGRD

Helix pomatia = assay: Inhibition of helix pomatia beta-mannosidase by spectrometry
Homo sapiens = species on record: Homo sapiens; assay: Inhibition of human placental alpha-fucosidase by spectrometry

Row | SMILES | IC50 [1] [µM] | IC50 (Alpha-galactosidase) [µM] | IC50 (Beta-galactosidase [2]) [µM] | inhibition (Canavalia ensiformis) | inhibition (Prunus dulcis) | IC50 (Beta-galactosidase [3]) [µM] | inhibition (Helix pomatia) | inhibition (Homo sapiens)
1 | CCCCCCCCN[C@@H]1C=C(CO)[C@@H](O)[C@H](O)[C@H]1O | 47 | > 1000 | 2.9 |  |  |  |  | 
2 | CCCCCCCCN[C@@H]1C=C(CO)[C@H](O)[C@H](O)[C@H]1O | 8.1 | 4.5 | 4.5 | inactive | Active | 85 | inactive | inactive
